Source: paper PMC5908160, “Inhibition of sperm motility in male macaques with EP055, a potential non-hormonal male contraceptive” (PLoS ONE, 2018)
Like-named read-outs stand apart in the source and are kept apart here.

Experiments:
[1] = EP055 plasma and semen levels in rhesus males after i.v. infusion; type: in vivo, Macaca mulatta
Excerpt: Semen was collected by direct penile stimulation with a P-T Electronics Model 303 PTE 110 Volt AC stimulator equipped with electrocardiogram pad electrodes (10–35 V, 20 ms duration, 18 pulses/sec) as previously described. Semen was collected weekly for 3 weeks to establish baseline parameters for each male. Samples were inspected visually to determine sperm motility and suitability for the study. Sperm motility data from male 28106 presented in S1 Table is representative of pre-treatment samples. Immediately after collection, the seminal plug was separated from the liquefied fraction, placed into a cryovial, flash frozen in liquid nitrogen, and stored at -80C until evaluation for drug levels. Spermatozoa were prepared by centrifugation (7 min, 200 g) of the liquid portion of the ejaculate and resuspending the sperm pellet in TALP-HEPES medium containing 0.3% bovine serum albumin at 37°C. An aliquot was taken to determine concentration using a hemocytometer, percent motility and forward progression as previously described. Baseline semen samples were collected from each male twice during the week prior to treatment. Semen was collected from each male 6–8 hr, 28–30 hr, and 78 hr post-infusion of low dose EP055 (75–80 mg/kg body weight) intravenously. After a one-week recovery period, a baseline semen sample was obtained, and the following week semen samples were collected as described above after an intravenous infusion of high dose EP055 (125–130 mg/kg).
Sample preparation and LC-MS/MS analysis were done by OpAns LLC (Durham, NC). Plasma samples (both rat and macaque) were thawed at room temperature and processed by adding 160 µL of methanol (including 10 µL internal standard) to 25 µL of the sample. Samples were vortexed for 5 minutes, centrifuged at 2684 x g for 5 minutes. 50 µL of supernatant was removed for analysis by HPLC-MS/MS.
Semen or tissue samples were thawed at room temperature. PBS at pH 7.6 was added to each sample at a ratio of 2:1 and sonicated in an ice chilled bath for 5 minutes before homogenization using a Polytron unit (Kinematica AG, Lucerne, Switzerland). An aliquot (25 uL) of each sample homogenate was processed as described for plasma samples.
Prior to infusion of EP055, each male was sedated with ketamine by the surgical staff at ONPRC and transported to the operating room. After positioning in dorsal recumbency, the male was intubated and placed under inhalant (isoflurane) anesthesia. Bilateral intravenous catheters were placed in cephalic veins, one for infusion and one for back-up. A percutaneous arterial line was placed in the right femoral artery for direct blood pressure measurement. Invasive blood pressure, heart rate, SpO2, and respirations were monitored by the surgical staff throughout the procedure. Initially, the low doses of EP055 in 5% DMSO-PBS 7.6 was infused by i.v. at 75-80 mg/kg, using a Medfusion 3500 pump (Smiths Medical, St. Paul, MN), and was started at a low flow rate ([…]). In 3 of 4 males, a 5-10% increase in blood pressure and heart rate were noted within the first 2-3 minutes of infusion of EP055. In these cases, the infusion was temporarily suspended until these parameters subsequently declined to normal. The infusion rate was then doubled to 1.2 ml/kg/min after 5-10 minutes and the final volume of EP055 infusate was administered. Blood pressure and heart rate remained normal throughout the rest of the infusion interval. The total volume of EP055 infusate ranged from 72 ml – 136 ml, depending upon the weight of the animal, and the duration of infusion was 10-13 minutes. Following completion of the infusion, all animals recovered normally. Animals were monitored by clinical veterinary staff immediately, at 1 hr, 2 hr and 6-8 hr post-infusion, and daily for up to 30 days after the final infusion of EP055. […]

EPPIN = EPPIN (Homo sapiens, UniProt O95925); experiment: AlphaScreen assay of a-EAb binding to EPPIN; conditions: n = 4, read-out: IC50, inhibition of a-EAb binding to EPPIN
Description: The AlphaScreen® assay was carried as previously described. Briefly, recombinant histidine-tagged recombinant EPPIN was pre-incubated with Ni-NTA chelate donor beads (catalog number AS101, Perkin Elmer, Waltham MA) and anti-Eppin 007 antibody was pre-incubated with Protein A acceptor beads (catalog number 6760136, Perkin Elmer, Waltham MA) for 30 minutes. Equal volumes of donor and acceptor bead mixtures were pipetted into white opaque 384-well microplates (OptiPlate-384; PerkinElmer, Waltham, MA) in a final volume of 30 μL. Plates were covered with top seal and transferred to a Synergy 2 Multiplatform automated plate reader (Biotek, Winooski, VT). After shaking for 2 min, plates were read with an excitation 680/30 filter, an emission 570/100 filter and data acquired using Gen5 software (Biotek). Each set of samples was pipetted in 4 replicates. […] A specific signal for each time point was calculated by subtracting the background signal (obtained in the absence of EPPIN) from its respective total signal. […] Non-specific interactions of compound with assay components were measured at the same time with the IgG detection kit ([…] biotinylated rabbit IgG) to generate the bead interaction: 10 μg/ml donor and acceptor beads. […]

Sequence of EPPIN (O95925 22-133): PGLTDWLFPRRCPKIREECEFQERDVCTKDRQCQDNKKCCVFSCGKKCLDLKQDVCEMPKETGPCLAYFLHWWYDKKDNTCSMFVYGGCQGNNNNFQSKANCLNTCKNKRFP

Work on `COC(=O)NNc1nc(Nc2ccc(NC(C)=O)c(O)c2)nc(SCC(=O)O)n1` [EP055] yielded a concentration ([1]; high dose 125–130 mg/kg, 6–8 hr, read-out: Plasma levels) of 0.97 ± 0.66 µM, a concentration ([1]; high dose 125–130 mg/kg, 6–8 hr, read-out: Semen Levels) of 539 µM and a concentration ([1]; high dose 125–130 mg/kg, 13–17 days, read-out: Semen Levels) of 0.9 ± 0.9 µM. It also gave a concentration ([1]; low dose 75–80 mg/kg, 14–18 days, read-out: Semen Levels) of 0.4 ± 0.3 µM, a concentration at 30 h ([1]; rhesus monkey, plasma, iv, high dose 125–130 mg/kg, read-out: Plasma levels) of 0.02 ± 0.01 µM and a concentration at 6 h ([1]; rhesus monkey, plasma, iv, low dose 75–80 mg/kg, 6 hr after infusion, mean ± SEM 4 animals, read-out: Plasma levels) of 0.62 ± 0.3 µM. It also gave a concentration at 30 h ([1]; rhesus monkey, plasma, iv, low dose 75–80 mg/kg, read-out: Plasma levels) of 0.01 µM, a concentration at 30 h ([1]; rhesus monkey, semen, iv, high dose 125–130 mg/kg, read-out: Semen Levels) of 376 µM and a concentration at 78 h ([1]; rhesus monkey, semen, iv, high dose 125–130 mg/kg) of 101 ± 30 µM. The concentration at 6 h ([1]; rhesus monkey, semen, iv, low dose 75–80 mg/kg, 6 hr, read-out: Semen Levels) was 293 µM, the concentration at 30 h ([1]; rhesus monkey, semen, iv, low dose 75–80 mg/kg, read-out: Semen Levels) was 128 ± 46 µM and the concentration at 78 h ([1]; rhesus monkey, semen, iv, low dose 75–80 mg/kg) was 61 ± 22 µM. For the same compound, the Kp ([1]; rhesus monkey, semen/plasma, iv, high dose 125–130 mg/kg, 6–8 hr, read-out: Ratio of S/P) was 556, the Kp at 6 h ([1]; rhesus monkey, semen/plasma, iv, low dose 75–80 mg/kg, 6 hr, read-out: Ratio of S/P) was 473 and the concentration ([1]; rhesus, 6 and 30 hours after high-dose infusion, read-out: semen levels) was > 300 µM. For the same compound, the detection in plasma ([1]; rhesus, 6–8 hours post-infusion) was “detected”, the detection in plasma ([1]; rhesus, 28–30 hours post-infusion) was “barely detectable” and the “time semen levels detectable post-infusion” value ([1]; rhesus, low and high dose) was “up to 78 hours”. It also gave an IC50 (EPPIN) of 1120 µM.
